From patent US9217015B2, “Cyclosporin derivatives for the treatment and prevention of a viral infection” (S&T Global Inc., priority 2010, dated 2015) come the findings set out here.

Data set [1] is classed as physicochemical. As to the method:
The stability of Cyclosporin derivatives were evaluated in methanol at 65° C. and 50° C., and HPLC was used to monitor possible degradation of these compounds (C8, 250 mm, NH4OAc 10 mmol in MeCN and H2O, operation temperature: 65° C.).

The test system of data set [2] is HCV replicon. As to the kind of experiment: HCV subgenomic replicon assay (Huh7 ET luc-ubi-neo/ET cells, luciferase end point). Type of data set: cell-based. The settings on record: read-out: Antiviral activity IC50. As to the method: The anti-HCV activity of cyclosporine derivatives were evaluated in the HCV subgenomic replicon assay. The assay use the cell line ET (luc-ubi-neo/ET), which is a Huh7 human hepatoma cell line harboring an HCV replicon with a stable luciferase (Luc) reporter. HCV RNA replication was assessed by quantifying HCV replicon-derived luciferase activity. The antiviral activity of cyclosporine analogs were evaluated after drug treatment, the EC 50 and EC 90 were determined in subsequent assessments by using the luciferase end point (Krieger, N. et al., 2001, J. Virol. 75:4614-4624; Pietschmann, T. et al., 2002, J. Virol. 76:4008-4021; each of which is incorporated herein by reference).

Where [3] appears, read: Huh7 ET (luc-ubi-neo/ET) cells, HCV replicon-derived luciferase activity.

Usually IC50 stands for the concentration at which inhibition is half-maximal.

Like-named read-outs stand apart in the source and are kept apart here. Numbered stars: 1 amine (or outer) side, 2 acyl side, 3 side chain; on linkers, the order of the positions; unused ones are H or OH. Square brackets hold non-standard residues; d marks the D form. Peptide text beside a SMILES is read from it. ξ: configuration not given here. MeBmt = C/C=C/C[C@@H](C)[C@@H](O)[C@H](NC)C(=O)O; X1 = CN([C@H](SCCCN1CCOCC1)C(=O)[*:2])[*:1]; X2 = CCN(CC)CCCS[C@H](C(=O)[*:2])N(C)[*:1]; X3 = CCN(CC)CCS[C@H](C(=O)[*:2])N(C)[*:1]; NMeIle(3ξ) = CCC(C)[C@H](NC)C(=O)O; NMeL = CN[C@@H](CC(C)C)C(=O)O; NMeV = CN[C@H](C(=O)O)C(C)C; Abu = CC[C@H](N)C(=O)O

For `C/C=C/C[C@@H](C)[C@@H](O)[C@H]1C(=O)N[C@@H](CC)C(=O)N(C)[C@H](SCCCN2CCOCC2)C(=O)N(C)[C@@H](C(C)CC)C(=O)N[C@@H](C(C)C)C(=O)N(C)[C@@H](CC(C)C)C(=O)N[C@@H](C)C(=O)N[C@H](C)C(=O)N(C)[C@@H](CC(C)C)C(=O)N(C)[C@@H](CC(C)C)C(=O)N(C)[C@@H](C(C)C)C(=O)N1C` (some centres unmarked) (cyclo(A[dA][NMeL][NMeL][NMeV][MeBmt][Abu][X1][NMeIle(3ξ)]V[NMeL])), the “Epimerization in MeOH at 50° C.” value in data set [1] (29 hrs), in data set [1] (77 hrs) and in data set [1] (125 hrs) was 0% in each case.

For `C/C=C/C[C@@H](C)[C@@H](O)[C@H]1C(=O)N[C@@H](CC)C(=O)N(C)[C@H](SCCCN2CCOCC2)C(=O)N(C)[C@@H](C(C)C)C(=O)N[C@@H](C(C)C)C(=O)N(C)[C@@H](CC(C)C)C(=O)N[C@@H](C)C(=O)N[C@H](C)C(=O)N(C)[C@@H](CC(C)C)C(=O)N(C)[C@@H](CC(C)C)C(=O)N(C)[C@@H](C(C)C)C(=O)N1C` (cyclo(A[dA][NMeL][NMeL][NMeV][MeBmt][Abu][X1][NMeV]V[NMeL])), the “Epimerization in MeOH at 50° C.” value in data set [1] (29 hrs), in data set [1] (77 hrs) and in data set [1] (125 hrs) was 0% each time. Consider `C/C=C/C[C@@H](C)[C@@H](O)[C@H]1C(=O)N[C@@H](CC)C(=O)N(C)[C@H](SCCCN(CC)CC)C(=O)N(C)[C@@H](C(C)CC)C(=O)N[C@@H](C(C)C)C(=O)N(C)[C@@H](CC(C)C)C(=O)N[C@@H](C)C(=O)N[C@H](C)C(=O)N(C)[C@@H](CC(C)C)C(=O)N(C)[C@@H](CC(C)C)C(=O)N(C)[C@@H](C(C)C)C(=O)N1C` (some centres unmarked) (cyclo(A[dA][NMeL][NMeL][NMeV][MeBmt][Abu][X2][NMeIle(3ξ)]V[NMeL])), for which the “Epimerization in MeOH at 50° C.” value in data set [1] (29 hrs), in data set [1] (77 hrs) and in data set [1] (125 hrs) was 0% each time. In the case of `C/C=C/C[C@@H](C)[C@@H](O)[C@H]1C(=O)N[C@@H](CC)C(=O)N(C)[C@H](SCCCN(CC)CC)C(=O)N(C)[C@@H](C(C)C)C(=O)N[C@@H](C(C)C)C(=O)N(C)[C@@H](CC(C)C)C(=O)N[C@@H](C)C(=O)N[C@H](C)C(=O)N(C)[C@@H](CC(C)C)C(=O)N(C)[C@@H](CC(C)C)C(=O)N(C)[C@@H](C(C)C)C(=O)N1C` (cyclo(A[dA][NMeL][NMeL][NMeV][MeBmt][Abu][X2][NMeV]V[NMeL])), the “Epimerization in MeOH at 50° C.” value in data set [1] (29 hrs), in data set [1] (77 hrs) and in data set [1] (125 hrs) was 0% each time.

In the case of `C/C=C/C[C@@H](C)[C@@H](O)[C@H]1C(=O)N[C@@H](CC)C(=O)N(C)[C@H](SCCN(CC)CC)C(=O)N(C)[C@@H](C(C)C)C(=O)N[C@@H](C(C)C)C(=O)N(C)[C@@H](CC(C)C)C(=O)N[C@@H](C)C(=O)N[C@H](C)C(=O)N(C)[C@@H](CC(C)C)C(=O)N(C)[C@@H](CC(C)C)C(=O)N(C)[C@@H](C(C)C)C(=O)N1C` [Example 1, [(R)-2-(N,N-Diethylamino)ethylthio-Sar]-3-[N-methylvaline]-4-cyclosporin] (cyclo(A[dA][NMeL][NMeL][NMeV][MeBmt][Abu][X3][NMeV]V[NMeL])), the IC50 in data set [2] (Hepatitis C virus, Huh7 ET) stood at 50 nM. On the same count and under the same terms, the result for `C/C=C/C[C@@H](C)[C@@H](O)[C@H]1C(=O)N[C@@H](CC)C(=O)N(C)[C@H](SCCN(CC)CC)C(=O)N(C)[C@@H](C(C)CC)C(=O)N[C@@H](C(C)C)C(=O)N(C)[C@@H](CC(C)C)C(=O)N[C@@H](C)C(=O)N[C@H](C)C(=O)N(C)[C@@H](CC(C)C)C(=O)N(C)[C@@H](CC(C)C)C(=O)N(C)[C@@H](C(C)C)C(=O)N1C` (stereo partly drawn) [Example 4, [(R)-2-(N,N-Diethylamino)ethylthio-Sar]-3-[N-methylisoleucine]-4-cyclosporin] (cyclo(A[dA][NMeL][NMeL][NMeV][MeBmt][Abu][X3][NMeIle(3ξ)]V[NMeL])) reads 40 nM.

`C/C=C/C[C@@H](C)[C@@H](O)[C@H]1C(=O)N[C@@H](CC)C(=O)N(C)[C@H](SCCCN2CCOCC2)C(=O)N(C)[C@@H](C(C)CC)C(=O)N[C@@H](C(C)C)C(=O)N(C)[C@@H](CC(C)C)C(=O)N[C@@H](C)C(=O)N[C@H](C)C(=O)N(C)[C@@H](CC(C)C)C(=O)N(C)[C@@H](CC(C)C)C(=O)N(C)[C@@H](C(C)C)C(=O)N1C` (stereo partly drawn) [Example 6, [(R)-3-(N-Morpholino)propylthio-Sar]-3-[N-methylisoleucine]-4-cyclosporin] (cyclo(A[dA][NMeL][NMeL][NMeV][MeBmt][Abu][X1][NMeIle(3ξ)]V[NMeL])): the IC50 in data set [2] (Hepatitis C virus, Huh7 ET) is 50 nM. On to `C/C=C/C[C@@H](C)[C@@H](O)[C@H]1C(=O)N[C@@H](CC)C(=O)N(C)[C@H](SCCN(C)C)C(=O)N(C)[C@@H](CC(C)(C)O)C(=O)N[C@@H](C(C)C)C(=O)N(C)[C@@H](CC(C)C)C(=O)N[C@@H](C)C(=O)N[C@H](C)C(=O)N(C)[C@@H](CC(C)C)C(=O)N(C)[C@@H](CC(C)C)C(=O)N(C)[C@@H](C(C)C)C(=O)N1C` [SCY-635, reference compound], for which the “Chemical stability (conversion to epimer), in words” value in data set [1] is listed as “not chemically stable”. On to `C/C=C/C[C@@H](C)[C@@H](O)[C@H]1C(=O)N[C@@H](CC)C(=O)N(C)CC(=O)N(C)[C@@H](C(C)C)C(=O)N[C@@H](C(C)C)C(=O)N(C)[C@@H](CC(C)C)C(=O)N[C@@H](C)C(=O)N[C@H](C)C(=O)N(C)[C@@H](CC(C)C)C(=O)N(C)[C@@H](CC(C)C)C(=O)N(C)[C@@H](C(C)C)C(=O)N1C` [SDZ-220-384, N-MeVal-4-cyclosporin, reference compound], for which the IC50 in data set [2] (setting [3]) stood at 170 nM. With `C/C=C/C[C@@H](C)[C@@H](O)[C@H]1C(=O)N[C@@H](CC)C(=O)N(C)CC(=O)N(C)[C@@H]([C@@H](C)CC)C(=O)N[C@@H](C(C)C)C(=O)N(C)[C@@H](CC(C)C)C(=O)N[C@@H](C)C(=O)N[C@H](C)C(=O)N(C)[C@@H](CC(C)C)C(=O)N(C)[C@@H](CC(C)C)C(=O)N(C)[C@@H](C(C)C)C(=O)N1C` [SDZ-NIM-811, N-MeIle-4-Cyclosporin, reference compound], in data set [2] (Hepatitis C virus, Huh7 ET), the IC50 is 150 nM. With `C/C=C/C[C@@H](C)[C@@H](O)[C@H]1C(=O)N[C@@H](CC)C(=O)N(C)[C@H](SCCN(C)C)C(=O)N(C)[C@@H](CC(C)C)C(=O)N[C@@H](C(C)C)C(=O)N(C)[C@@H](CC(C)C)C(=O)N[C@@H](C)C(=O)N[C@H](C)C(=O)N(C)[C@@H](CC(C)C)C(=O)N(C)[C@@H](CC(C)C)C(=O)N(C)[C@@H](C(C)C)C(=O)N1C` [[(R)-2-(N,N-Dimethylamino)ethylthio-Sar]-3-cyclosporin, reference compound], the “Chemical stability (conversion to epimer), in words” value in data set [1] is on record as “not stable”. In the case of `C/C=C/C[C@@H](C)[C@@H](O)[C@H]1C(=O)N[C@@H](CC)C(=O)N(C)[C@H](SCCN(C)C)C(=O)N(C)[C@@H](CC(C)C)C(=O)N[C@@H](C(C)C)C(=O)N(C)[C@@H](CC(C)C)C(=O)N[C@@H](C)C(=O)N[C@H](C)C(=O)N(C)[C@@H](CC(C)C)C(=O)N(C)[C@@H](CC(C)C)C(=O)N(C)[C@@H](C(C)C)C(=O)N1C` [drawing 57], the “Epimerization in MeOH at 65° C.” value is 12% in data set [1] (2 hours), 19% in data set [1] (4 hours) and 23% in data set [1] (6 hours).

For the molecule `C/C=C/C[C@@H](C)[C@@H](O)[C@H]1C(=O)N[C@@H](CC)C(=O)N(C)[C@H](SCCN(C)C)C(=O)N(C)[C@@H](CC(C)C)C(=O)N[C@@H](C(C)C)C(=O)N(C)[C@@H](CC(C)C)C(=O)N[C@@H](C)C(=O)N[C@H](C)C(=O)N(C)[C@@H](CC(C)C)C(=O)N(C)[C@@H](CC(C)C)C(=O)N(C)[C@@H](C(C)C)C(=O)N1C` [drawing 58, reference compound], the “Epimerization in MeOH at 50° C.” value in data set [1] (29 hrs) amounted to 25.5%; in data set [1] (77 hrs), 31.8%; in data set [1] (125 hrs) it was 34.9%. In the same order, the values of `C/C=C/C[C@@H](C)[C@@H](O)[C@H]1C(=O)N[C@@H](CC)C(=O)N(C)[C@H](SCCN(CC)CC)C(=O)N(C)[C@@H](C(C)CC)C(=O)N[C@@H](C(C)C)C(=O)N(C)[C@@H](CC(C)C)C(=O)N[C@@H](C)C(=O)N[C@H](C)C(=O)N(C)[C@@H](CC(C)C)C(=O)N(C)[C@@H](CC(C)C)C(=O)N(C)[C@@H](C(C)C)C(=O)N1C` (some centres unmarked) [reference compound] (cyclo(A[dA][NMeL][NMeL][NMeV][MeBmt][Abu][X3][NMeIle(3ξ)]V[NMeL])) are 4.4%, 10.4% and 16.2%. Consider “[(S)-2-(N,N-Diethylamino)ethylthio-Sar]-3-[N-methylvaline]-4-cyclosporin”, for which the 50% inhibitory concentration (IC50) in data set [2] (setting [3]) is 3660 nM.
